pIC50: −log10 of the molar value.
How the values were obtained:
[1] = target: GST-tagged KRAS-G12D (2-169) (Homo sapiens, UniProt P01116, G12D); test: Nucleotide exchange assay (NEA), SOS-mediated, HTRF, KRAS G12D; assay type: biochemical; conditions: Table 4; IC50 extracted at 30 min; 20 nM SOScat; read-out: NEA G12D IC50
Method in brief: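 SOS1cat-driven loading of fluorescent GTP-DY-647P1 (150 nM) onto GST-KRAS-G12D (2-169, 0.25 nM) read by time-resolved FRET; SOScat 20 nM, compound preincubated with KRAS 1 h at RT. Signal blanked to no-SOS reactions, normalized to DMSO; IC50 fitted from the 30-min read.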

[2] = target: GST-tagged KRAS-G12V (2-169) (Homo sapiens, UniProt P01116, G12V); test: Nucleotide exchange assay (NEA), SOS-mediated, HTRF, KRAS G12V; assay type: biochemical; conditions: Table 4; IC50 extracted at 90 min; 80 nM SOS
Chain of GST-tagged KRAS-G12V (2-169) (P01116 2-169 isoform P01116-2 G12V): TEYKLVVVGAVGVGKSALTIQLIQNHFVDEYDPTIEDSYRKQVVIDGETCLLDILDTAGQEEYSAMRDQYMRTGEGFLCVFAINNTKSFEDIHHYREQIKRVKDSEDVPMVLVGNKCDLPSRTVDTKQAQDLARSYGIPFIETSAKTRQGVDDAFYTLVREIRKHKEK
Method in brief: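 Exchange onto fluorescent GTP-DY-647P1 (150 nM final) catalysed by 80 nM SOS1cat was followed by Tb-anti-GST HTRF at RT for up to 90 min, after 1 h compound pre-incubation with 0.25 nM GST-tagged KRAS-G12V (2-169), pH 7.3. DMSO = 0%, no-SOS blank = 100%; 4-parameter IC50 taken at 90 min.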

[3] = tested on: phospho-ERK in GP2D (KRAS-G12D) cells; test: pERK In Cell Western (ICW) assay (Method B), GP2D; assay type: cell-based; conditions: GP2d, 3 h, Table 4
Method in brief: (§1)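 Read-out is In-Cell Western phospho-ERK signal divided by DRAQ5 per well, as percent of blank control, fitted with a 4-parameter variable-slope model for IC50. Compounds were dosed as 9-point half-log series for 3 h at 37°C on AGS, GP2D (G12D) or SW620 (G12V) cells plated the day before.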

[4] = tested on: phospho-ERK in SW620 (KRAS-G12V) cells; test: pERK In Cell Western (ICW) assay (Method B), SW620; assay type: cell-based; conditions: Homo sapiens, SW-620, 3 h, Table 4
Method in brief: as §1

Chain of GST-tagged KRAS-G12D (2-169) (P01116 2-169 isoform P01116-2 G12D): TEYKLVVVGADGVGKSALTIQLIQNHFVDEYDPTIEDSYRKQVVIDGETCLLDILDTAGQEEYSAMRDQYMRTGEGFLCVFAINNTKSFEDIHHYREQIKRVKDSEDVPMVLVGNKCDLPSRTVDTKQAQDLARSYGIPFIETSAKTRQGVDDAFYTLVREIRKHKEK

`CC(c1nsnc1N)N(C)c1nc(OC[C@@]23CCCN2C[C@H](F)C3)nc(N2CC3(CCc4sc(N)c(C#N)c43)C2)n1` (stereo partly drawn) [Compound 170, -amino-1′-[4-[1-(4-amino-1,2,5-thiadiazol-3-yl)ethyl-methyl-amino]-6-[[(2R,8S)-2-fluoro-1,2,3,5,6,7-hexahydropyrrolizin-8-yl]methoxy]-1,3,5-triazin-2-yl]spiro[5,6-dihydrocyclopenta[b]thiophene-4,3′-azetidine]-3-carbonitrile] was tested, and the pIC50 [1] was 7.00 to 8.00, the pIC50 [2] was > 8.00 and the pIC50 [3] was 6.00 to 7.00. It also gave a pIC50 [4] of 7.00 to 8.00.

For `C[C@@]1(O)C[C@@H](F)CN(c2nc(OC[C@@]34CCCN3C[C@H](F)C4)nc(N3CC4(C3)SCc3sc(N)c(C#N)c34)n2)C1` [Compound 123, 2-amino-1′-[4-[[(2R,8S)-2-fluoro-1,2,3,5,6,7-hexahydropyrrolizin-8-yl]methoxy]-6-[(3R,5R)-5-fluoro-3-hydroxy-3-methyl-1-piperidyl]-1,3,5-triazin-2-yl]spiro[6H-thieno[3,4-b]thiophene-4,3′-azetidine]-3-carbonitrile], the pIC50 [1] was > 8.00, the pIC50 [2] was > 8.00 and the pIC50 [3] was 7.00 to 8.00. For the same compound, the pIC50 [4] was 6.00 to 7.00.

With `N#CCC1(O)CCCN(c2nc(OC[C@@]34CCCN3C[C@H](F)C4)nc(N3CC4(CCc5sc(N)c(C#N)c54)C3)n2)C1` (stereo partly drawn) [Compound 79, 2-amino-1′-[4-[3-(cyanomethyl)-3-hydroxy-1-piperidyl]-6-[[(2R,8S)-2-fluoro-1,2,3,5,6,7-hexahydropyrrolizin-8-yl]methoxy]-1,3,5-triazin-2-yl]spiro[5,6-dihydrocyclopenta[b]thiophene-4,3′-azetidine]-3-carbonitrile; 2,2,2-trifluoroacetic acid] the pIC50 [1] was 7.00 to 8.00, the pIC50 [2] was > 8.00 and the pIC50 [3] was 6.00 to 7.00. The pIC50 [4] was 4.70 to 6.00.

In the case of `C[C@H](c1cccnc1N)N(CCC#N)c1nc(OCC2(CN3CCOCC3)CC2)nc(N2CC3(C2)SCc2sc(N)c(C#N)c23)n1` [Compound 148, (R)-2′-amino-1-(4-((1-(2-aminopyridin-3-yl)ethyl)(2-cyanoethyl)amino)-6-((1-(morpholinomethyl)cyclopropyl)methoxy)-1,3,5-triazin-2-yl)-6′H-spiro[azetidine-3,4′-thieno[3,4-b]thiophene]-3′-carbonitrile], the pIC50 [1] was > 8.00, the pIC50 [2] was > 8.00 and the pIC50 [3] was 7.00 to 8.00. The pIC50 [4] was > 8.00.

In the case of `C[C@@]1(O)CCCN(c2nc(OC[C@@]34CCCN3C[C@H](F)C4)nc(N3CC4(C3)c3c(sc(N)c3C#N)CC4(F)F)n2)C1` [Compound 114, 2-amino-5,5-difluoro-1′-[4-[[(2R,8S)-2-fluoro-1,2,3,5,6,7-hexahydropyrrolizin-8-yl]methoxy]-6-[(3R)-3-hydroxy-3-methyl-1-piperidyl]-1,3,5-triazin-2-yl]spiro[6H-cyclopenta[b]thiophene-4,3′-azetidine]-3-carbonitrile], the pIC50 [1] was > 8.00, the pIC50 [2] was > 8.00 and the pIC50 [3] was 7.00 to 8.00. It also gave a pIC50 [4] of 6.00 to 7.00.

With `N#Cc1c(N)sc2c1C1(CC2)CN(c2nc(OC[C@@]34CCCN3C[C@H](F)C4)nc(N3CCCC4(CC(=O)N4)C3)n2)C1` (stereo partly drawn) [Compound 130, 2-amino-1′-[4-[[(2R,8S)-2-fluoro-1,2,3,5,6,7-hexahydropyrrolizin-8-yl]methoxy]-6-(2-oxo-1,8-diazaspiro[3.5]nonan-8-yl)-1,3,5-triazin-2-yl]spiro[5,6-dihydrocyclopenta[b]thiophene-4,3′-azetidine]-3-carbonitrile] the pIC50 [1] was > 8.00, the pIC50 [2] was > 8.00 and the pIC50 [3] was 6.00 to 7.00. It also gave a pIC50 [4] of 4.70 to 6.00.

`N#Cc1c(N)sc2c1C1(CC2)CN(c2nc(OCC3(CN4CCOCC4)CC3)nc(N3CCCC(C#N)C3)n2)C1` (stereo not drawn) [Compound 56, 2-amino-1′-[4-(3-cyano-1-piperidyl)-6-[[1-(morpholinomethyl)cyclopropyl]methoxy]-1,3,5-triazin-2-yl]spiro[5,6-dihydrocyclopenta[b]thiophene-4,3′-azetidine]-3-carbonitrile] showed a pIC50 [1] of 6.00 to 7.00, a pIC50 [2] of 7.00 to 8.00 and a pIC50 [3] of 6.00 to 7.00. It also gave a pIC50 [4] of 4.70 to 6.00.

In the case of `C[C@@]1(O)CCCN(c2nc(OCC3(CN4CCOCC4)CC3)nc(N3CC4(C3)c3c(sc(N)c3C#N)CC4F)n2)C1` (stereo partly drawn) [Compound 61, 2-amino-5-fluoro-1′-[4-[(3R)-3-hydroxy-3-methyl-1-piperidyl]-6-[[1-(morpholinomethyl)cyclopropyl]methoxy]-1,3,5-triazin-2-yl]spiro[5,6-dihydrocyclopenta[b]thiophene-4,3′-azetidine]-3-carbonitrile], the pIC50 [1] was > 8.00, the pIC50 [2] was 7.00 to 8.00 and the pIC50 [3] was 7.00 to 8.00. For the same compound, the pIC50 [4] was 6.00 to 7.00.

`CN(c1nc(OC[C@@]23CCCN2C[C@H](F)C3)nc(N2CC3(C2)SCc2sc(N)c(C#N)c23)n1)C1CC1` [Compound 160, 2-amino-1′-[4-[cyclopropyl(methyl)amino]-6-[[(2R,8S)-2-fluoro-1,2,3,5,6,7-hexahydropyrrolizin-8-yl]methoxy]-1,3,5-triazin-2-yl]spiro[6H-thieno[3,4-b]thiophene-4,3′-azetidine]-3-carbonitrile] gave a pIC50 [1] of 7.00 to 8.00, a pIC50 [2] of 7.00 to 8.00 and a pIC50 [3] of 6.00 to 7.00. It also gave a pIC50 [4] of 6.00 to 7.00.

With `CC(c1nonc1N)N(C)c1nc(OC[C@@]23CCCN2C[C@H](F)C3)nc(N2CC3(CCc4sc(N)c(C#N)c43)C2)n1` (stereo partly drawn) [Compound 156, 2′-amino-1-(4-((1-(4-amino-1,2,5-oxadiazol-3-yl)ethyl)(methyl)amino)-6-(((2R,7aS)-2-fluorotetrahydro-1H-pyrrolizin-7a(5H)-yl)methoxy)-1,3,5-triazin-2-yl)-5′,6′-dihydrospiro[azetidine-3,4′-cyclopenta[b]thiophene]-3′-carbonitrile] the pIC50 [1] was 6.00 to 7.00, the pIC50 [2] was > 8.00 and the pIC50 [3] was 4.70 to 6.00. The pIC50 [4] was 7.00 to 8.00.

In the case of `N#Cc1c(N)sc2c1C1(CC2)CN(c2nc(OC[C@@]34CCCN3C[C@H](F)C4)nc(N3CCCOCC3)n2)C1` [Compound 89, 2-amino-1′-[4-[[(2R,8S)-2-fluoro-1,2,3,5,6,7-hexahydropyrrolizin-8-yl]methoxy]-6-(1,4-oxazepan-4-yl)-1,3,5-triazin-2-yl]spiro[5,6-dihydrocyclopenta[b]thiophene-4,3′-azetidine]-3-carbonitrile], the pIC50 [1] was 7.00 to 8.00, the pIC50 [2] was > 8.00 and the pIC50 [3] was 6.00 to 7.00. It also gave a pIC50 [4] of 6.00 to 7.00.

`C[C@H](c1cccnc1N)N(c1nc(OC[C@@]23CCCN2C[C@H](F)C3)nc(N2CC3(C2)SCc2sc(N)c(C#N)c23)n1)C1CC1` [Compound 264, 2-amino-1′-[4-[[(1R)-1-(2-amino-3-pyridyl)ethyl]-cyclopropyl-amino]-6-[[(2R,8S)-2-fluoro-1,2,3,5,6,7-hexahydropyrrolizin-8-yl]methoxy]-1,3,5-triazin-2-yl]spiro[6H-thieno[3,4-b]thiophene-4,3′-azetidine]-3-carbonitrile] was tested, and the pIC50 [1] was > 8.00, the pIC50 [2] was > 8.00 and the pIC50 [3] was 7.00 to 8.00. The pIC50 [4] was > 8.00.

`C[C@H](c1cccnc1N)N(CCF)c1nc(OC[C@@]23CCCN2C[C@H](F)C3)nc(N2CC3(C2)SCc2sc(N)c(C#N)c23)n1` [Compound 180, 2′-amino-1-(4-(((R)-1-(2-aminopyridin-3-yl)ethyl)(2-fluoroethyl)amino)-6-(((2R,7aS)-2-fluorotetrahydro-1H-pyrrolizin-7a(5H)-yl)methoxy)-1,3,5-triazin-2-yl)-6′H-spiro[azetidine-3,4′-thieno[3,4-b]thiophene]-3′-carbonitrile] was tested, and the pIC50 [1] was > 8.00, the pIC50 [2] was > 8.00 and the pIC50 [3] was > 8.00. For the same compound, the pIC50 [4] was > 8.00.

With `CC(c1cccnc1N)N(C)c1nc(OC[C@@]23CCCN2C[C@H](F)C3)nc(N2CC3(C2)SCc2sc(N)c(C#N)c23)n1` (single isomer, unassigned) [Compound 120A, 2-amino-1′-[4-[[(1*)-1-(2-amino-3-pyridyl)ethyl]-methyl-amino]-6-[[(2R,8S)-2-fluoro-1,2,3,5,6,7-hexahydropyrrolizin-8-yl]methoxy]-1,3,5-triazin-2-yl]spiro[6H-thieno[3,4-b]thiophene-4,3′-azetidine]-3-carbonitrile] the pIC50 [1] was > 8.00, the pIC50 [2] was > 8.00 and the pIC50 [3] was > 8.00. The pIC50 [4] was > 8.00.

For `N#Cc1c(N)sc2c1C1(CC2)CN(c2nc(OC[C@@]34CCCN3C[C@H](F)C4)nc(N(CCO)Cc3cn[nH]c3)n2)C1` [Compound 137, 2-amino-1′-[4-[[(2R,8S)-2-fluoro-1,2,3,5,6,7-hexahydropyrrolizin-8-yl]methoxy]-6-[2-hydroxyethyl(1H-pyrazol-4-ylmethyl)amino]-1,3,5-triazin-2-yl]spiro[5,6-dihydrocyclopenta[b]thiophene-4,3′-azetidine]-3-carbonitrile], the pIC50 [1] was 6.00 to 7.00, the pIC50 [2] was 7.00 to 8.00 and the pIC50 [3] was 4.70 to 6.00. It also gave a pIC50 [4] of 4.70 to 6.00.
